How the values were obtained:
[1] = test system: larval zebrafish; assay: Sensitized thermal aversion assay (28.5° vs 31.5° C. after AITC), small molecule screen; assay type: in vivo, Zebrafish (Danio rerio); conditions: 10 min incubation then AITC 0.5 μM
Source text: The Novel Analgesic AS1 reverses the valence of normally aversive stimuli. In a previously published study, a novel high throughput temperature discrimination assay utilizing larval zebrafish that modeled acute and sensitized temperature aversion were developed (FIG. 1A) (Curtright et al., PLoS One. 2015; 10:1-18). […] Also shown is that multiple small molecule analgesics could reverse acute and/or sensitized thermal aversion while non-analgesics could not.
Using the sensitized thermal aversion assay, a small molecule library was screened in order to identify targets in pain transduction pathways and potential entry points for therapeutic intervention. The compounds were selected from Chembridge's CNS-Set (https://www.chembridge.com), which consists of small molecules selected for blood brain barrier penetration and oral bioavailability. Compounds were selected from across the library to maximize the diversity of molecules screened. Small molecules were initially pooled (8 per pool) to maximize screening efficiency. […]
Thermal preference assay. […] Locomotor behavior was recorded using a Canon high-definition video camcorder suspended at a fixed position above the choice testing plate. […]

[2] = test system: trigeminal neurons; assay: CaMPARI neuronal activity assay; assay type: in vivo, Zebrafish (Danio rerio); conditions: 5 μM AS1; 28.5° C. or 37.5° C.
Source text: Brain regions associated with dopaminergic circuitry are specifically activated in the concurrent presence of AS1 and noxious stimuli. It was next sought to determine in an unbiased manner where in the zebrafish nervous system AS1 was exerting its effects by examining neuronal activity in the context of noxious stimuli. […] Many analgesics can act upon multiple different levels of pain transduction circuitry. For example, MORs can be found upon peripheral somatosensory neurons, spinal cord neurons, and numerous neuronal populations in the brain, and both exogenous and endogenous opioids can modulate the activity of any of these neurons (Corder et al., Annu. Rev. Neurosci. 2018; 41: 453-473). To investigate whether peripheral somatosensory neurons were also influenced by AS1, a neuronal activity assay upon transgenic zebrafish expressing the genetically-encoded calcium indicator CaMPARI in all neurons was performed. This fluorescent protein permanently photoconverts from green to red in the presence of a 405 nm light and high calcium (a proxy for neuronal activity), allowing “snapshots” of neuronal activity at a single time point (Fosque et al., Science. 2015; 347(6223):755-760). Fish were exposed to conditions of 28.5° C. or 37.5° C. with or without AS1 in the presence of a blue light, and then the trigeminal ganglia (TG) were surveyed for photoconverted neurons. […]

CC(C)c1ccc(C(=O)Nc2ccncc2)cc1 [AS1, 4-propan-2-yl-N-pyridin-4-ylbenzamide]
sensitized thermal aversion / place preference [1]: induced place preference for the noxious zone
Number of photoconverted trigeminal neurons, AS1-treated vs control [2]: No significant difference

Source: patent US20250177366A1, “COMPOSITIONS AND METHODS FOR ALLEVIATING PAIN AND REDUCING ADVERSIVENESS OF STIMULI” (UNIVERSITY OF WASHINGTON, priority 2021, published 2025)
